How the values were obtained:
[1] = molecular target: T1, Human rt-PA (Activase) (Homo sapiens, UniProt P00750); test: Recombinant tissue plasminogen activator (rt-PA) chromogenic assay; type: biochemical; settings: 30 minute preincubation, HBSA buffer; read-out: tPA IC50
T1 construct: purchased Genentech Inc
Procedure: rt-PA catalytic activity was determined using the substrate, Pefachrome t-PA (CH3SO2-D-hexahydrotyrosine-glycyl-L-arginine-p-nitroaniline, obtained from Pentap harm Ltd.). The substrate was made up in deionized water followed by dilution in HBSA prior to the assay in which the final concentration was 500 micromolar (about 3-times Km). Human rt-PA (Activase®) was obtained from Genentech Inc. The enzyme was reconstituted in deionized water and diluted into HBSA prior to the assay in which the final concentration was 1.0 nM.

[2] = molecular target: T2, human plasmin (Homo sapiens, UniProt P00747); test: Plasmin chromogenic substrate (S-2366) assay; type: biochemical; settings: 30 minute preincubation, HBSA buffer
T2 construct: purchased Enzyme Research Laboratories, Inc
Procedure: The substrate was made up in deionized water followed by dilution in HBSA prior to the assay in which the final concentration was 300 micromolar (about 2.5-times Km). Purified human plasmin was obtained from Enzyme Research Laboratories, Inc. The enzyme was diluted into HBSA prior to assay in which the final concentration was 1.0 nM.

[3] = system: bFGF-induced angiogenesis on the CAM of chick embryos; test: Chicken CAM model of bFGF-induced angiogenesis; type: in vivo; settings: for Angiogenic Index / # of Blood Vessel Branch Points: bFGF; for Angiogenic Index: difference in branch points vs untreated control embryos; for # of Blood Vessel Branch Points: single administration
Description: A test compound can either be added to the filter disc that contains the angiogenesis inducer, be placed directly on the membrane or be administered systemically. The extent of new blood vessel formation in the presence and/or absence of test compound can be compared using this model. The formation of fewer new blood vessels in the presence of a test compound would be indicative of anti-angiogenesis activity.
The chicken CAM (chick embryo chorioallantoic membrane) model, a standard angiogenesis assay, was used to evaluate the ability of Compound 1 to inhibit angiogenesis. This model is an established model for evaluation of activity of a test compound to affect formulation of new blood vessels.
A filter disc saturated with a 0.5 μg/ml solution of basic fibroblast growth factor (bFGF) was placed on the CAM of 10 day old chick embryos to induce angiogenesis. Twenty four hours later, 0 to 1 μg of Compound 1, in a total volume of 100 μl of sterile PBS, was injected intravenously into the embryo. Approximately 48 hours later, the embryos were sacrificed and the filter discs and surrounding CAM tissue were excised for analysis. Angiogenesis was quantitated by counting the number of blood vessel branch points within the confined region of the filter [Brooks, P.C., et al, Methods in Molecular Biology 120:257-269 (1999)]. The angiogenic index is defined as the difference in the number of blood vessel branch points between an experimental group and the untreated, control embryos. Each experimental group contained 8 to 10 chicken embryos. A single administration of 1 μg of Compound 1 inhibited angiogenesis by 92% in this experiment.

[4] = system: human fibrosarcoma cells (HT 1080); test: Growth of human HT1080 tumor cells in chick embryo model; type: in vivo, chicken; settings: for Tumor wet weight: 7 days incubation
Procedure: A chicken embryo model was used to evaluate the activity of Compound 1 to inhibit the growth of human tumor cells in vivo. A single cell suspension of human fibrosarcoma cells (HT 1080), containing 4×10^5 cells in a total volume of 40 μl, was applied to 10 day old chick embryos as described by Brooks, et al (“Brooks, P.C., et al, “Integrin αvβ3 Antagonists Promote Tumor Regression by Inducing Apoptosis of Angiogenic Blood Vessels”, Cell 79:1157-1164 (1994)). Twenty-four hours later 0 to 10 μg of Compound 1 was injected intravenously into the embryos. Following this single administration of compound, control and treated embryos were incubated for a total of 7 days and then sacrificed. Tumors were excised, trimmed free of surrounding CAM tissue, and weighed. Each experimental group contained 10 to 12 chicken embryos. A single dose of 10 μg of Compound 1 reduced tumor weight by approximately 65%.

[5] = molecular target: Urokinase (Abbokinase) (Homo sapiens, UniProt P00749); test: Urokinase chromogenic substrate (S-2444) IC50 assay
Procedure: The buffer used for all assays was HBSA (10 mM HEPES, pH 7.5, 150 mM sodium chloride, 0.1% bovine serum albumin).
The initial velocity of chromogenic substrate hydrolysis was measured by the change in absorbance at 405 nm using a Thermo Max® Kinetic Microplate Reader over a 5 minute period in which less than 5% of the added substrate was utilized.
The assay buffer was HBS (10mM HEPES, 150mM sodium chloride pH 7.4) with 0.1% BSA.

T2 sequence (P00747 581-810 limits assumed): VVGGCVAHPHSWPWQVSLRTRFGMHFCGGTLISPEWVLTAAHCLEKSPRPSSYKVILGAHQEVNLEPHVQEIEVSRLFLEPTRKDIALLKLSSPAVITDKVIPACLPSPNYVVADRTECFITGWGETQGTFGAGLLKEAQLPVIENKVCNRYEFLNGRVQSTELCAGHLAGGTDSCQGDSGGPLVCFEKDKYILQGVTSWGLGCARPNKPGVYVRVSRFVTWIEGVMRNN
T2 sequence (P00747 97-580 partner limits assumed): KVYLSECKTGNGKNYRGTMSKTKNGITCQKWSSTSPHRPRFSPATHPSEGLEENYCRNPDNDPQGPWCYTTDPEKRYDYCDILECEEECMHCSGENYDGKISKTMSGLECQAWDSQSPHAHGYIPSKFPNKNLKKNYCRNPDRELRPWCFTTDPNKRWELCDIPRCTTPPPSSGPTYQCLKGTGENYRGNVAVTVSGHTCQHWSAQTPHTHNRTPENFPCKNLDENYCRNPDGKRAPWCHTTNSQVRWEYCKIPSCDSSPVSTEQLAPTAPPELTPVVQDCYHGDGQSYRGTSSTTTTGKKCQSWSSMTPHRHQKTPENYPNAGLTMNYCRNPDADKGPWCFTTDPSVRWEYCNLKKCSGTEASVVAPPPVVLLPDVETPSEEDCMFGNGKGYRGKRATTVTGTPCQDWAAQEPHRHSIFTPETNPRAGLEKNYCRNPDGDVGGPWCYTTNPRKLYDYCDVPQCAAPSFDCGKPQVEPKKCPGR
T1 sequence (P00750 36-562): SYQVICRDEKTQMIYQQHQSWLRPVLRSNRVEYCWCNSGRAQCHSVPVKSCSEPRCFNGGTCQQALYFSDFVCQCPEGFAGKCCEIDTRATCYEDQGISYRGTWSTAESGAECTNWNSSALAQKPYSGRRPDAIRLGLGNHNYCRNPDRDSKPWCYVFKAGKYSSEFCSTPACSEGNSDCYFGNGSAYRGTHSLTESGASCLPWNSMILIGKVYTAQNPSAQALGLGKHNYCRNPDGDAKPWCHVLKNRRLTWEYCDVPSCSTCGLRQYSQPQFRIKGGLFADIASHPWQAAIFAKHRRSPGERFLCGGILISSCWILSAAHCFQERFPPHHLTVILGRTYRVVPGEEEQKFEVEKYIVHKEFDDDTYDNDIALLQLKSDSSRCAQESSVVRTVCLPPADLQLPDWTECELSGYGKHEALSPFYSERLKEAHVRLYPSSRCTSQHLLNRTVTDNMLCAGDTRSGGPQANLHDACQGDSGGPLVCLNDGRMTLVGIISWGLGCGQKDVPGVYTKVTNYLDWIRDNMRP

IC50 [1]: > 2500 nM | IC50 [2]: 250 to 2500 nM | IC50 [5]: < 100 nM
SMILES: CC(C)COC(=O)N[C@H](CO)C(=O)N[C@@H](C)C(=O)N[C@H](C=O)CCCNC(=N)N [Compound 1, Isobutyloxycarbonyl-D-seryl-L-alanyl-argininal]
Angiogenic Index ([3]; 0.001 μg Compound 1): 22 | # of Blood Vessel Branch Points ([3]; 0.001 μg Compound 1 intravenously): 35 +/− 5 | Angiogenic Index ([3]; 0.01 μg Compound 1): 8 | # of Blood Vessel Branch Points ([3]; 0.01 μg Compound 1 intravenously): 21 +/− 5 | Angiogenic Index ([3]; 1.0 μg Compound 1): 2 | # of Blood Vessel Branch Points ([3]; 1.0 μg Compound 1 intravenously): 15 +/− 1 | inhibition of angiogenesis ([3]; single administration of 1 μg, intravenously): 92% | Tumor wet weight ([4]; 1 μg single intravenous dose): 174 ± 25 mg | Tumor wet weight ([4]; 10 μg single intravenous dose): 97 ± 15 mg | reduction of tumor weight ([4]; single dose of 10 μg): approximately 65%
